Results published in patent publication US8008492B2, “Compounds that act as a vehicle for delivery through the blood-brain barrier and charge delivery vehicle constructions” (priority 2006, dated 2011).

Assays:
[1] = Immobilized artificial membrane chromatography (IAMC); assay type: physicochemical; conditions: isocratic, phosphate buffer pH 7.4 and 20% MeCN
Description: To evaluate the BBB-shuttles and BBB-shuttle-cargo constructs, a chromatographic technique, IAMC (immobilized artificial membrane chromatography) developed by Pidgeon was used (cf. A. Albert, Chemical aspects of selective toxicity. Nature 1958, vol. 182, pp. 421-423). This technique uses phospholipid molecules covalently immobilized to silica particles at high density as the stationary phase. It has been used to purify membrane proteins, to immobilize enzymes and to predict transport across biological barriers. […] IAMC interactions include ionic, lipophilic and hydrogen bonding interactions that can be combined under a parameter known as phospholipophilicity. […] The compounds were detected by UV absorption at 220 nm. […] The retention times (tr) were transformed into capacity factors (kIAM) according to the following equation: kIAM=(tr−t0)/t0, where tr is the retention time of the studied compound and t0 is the retention time of a compound that would not be retained by the column (e.g. citric acid). As a control, propranolol was studied. BBB-shuttles and the BBB-shuttle-cargo constructs were also evaluated by IAMC (Immobilized Artificial Membrane Chromatography), a chromatographic technique that measures the phospholipophilicity of our compounds, their tendency to interact with phosphatidylcholine covalently immobilized. See results in Table 6 and 7.

[2] = Parallel artificial membrane permeability assay (PAMPA); assay type: in vitro ADME, porcine; conditions: 200 μM initial, pH 7.4, 4 hours, room temperature; for Effective permeability Pe: triplicate
Description: Parallel artificial membrane permeability assay (PAM PA). The evaluation method chosen is the Parallel Artificial Membrane Permeability Assay (PAMPA), which allows to predict or evaluate only this transport mechanism. In general terms, this method is simple, automatizable with high throughput, has a low cost and require only a small amount of test compound. The PAMPA method originally introduced by Kansy at Roche uses an artificial membrane in the form of filter supported phospholipids bilayers ([…] al., “Physicochemical high throughput screening: Parallel artificial membrane permeability assay in the description of the absorption processes” J. Med. Chem. 1998, vol. 41, pp. 1007-1010). The phospholipid membrane mimics the cell membrane, but has no means for active or paracellular transport of drug molecules. It is a very convenient tool to evaluate the transport of compounds by passive diffusion. This technique allows the evaluation of pure compounds, crudes or even mixtures of compounds. PAMPA assay is used to determine the ability of the BBB shuttle-cargo constructs to cross the BBB by passive diffusion. […] The compound of interest was dissolved to the desired concentration (200 μM). The PAMPA sandwich was separated and the donor well was filled with 200 μL of the compound solution to be studied. The acceptor plate was placed into the donor plate making sure that the underside of membrane was in contact with buffer. 4 μL of mixture of phospholipids (20 mg/mL) in dodecane were added into each well and 200 μL of buffer solution were added to the each acceptor well. The plate was covered and incubated at room temperature in a saturated humidity atmosphere for 4 hours under orbital agitation at 100 rpm. […] The transport was also confirmed by MALDI-TOF spectrometry and HPLC-MS of aliquotes of the acceptor wells. The mixture of phospholipids used is a porcine polar brain lipid extract. […] The effective permeability was calculated using the following equation: [formula] where: • t time (hours) • CA(t) Compound concentration at the acceptor well at time t • CD(t0) Compound concentration at the donor well at 0 h As a control, the transport of propranolol was evaluated in parallel and a mass balance was calculated for all the studied compounds in order to detect if retention in the phospholipids occur. The different compounds were evaluated by PAMPA assay.

Log Pe ([2]; dopamine constructs) | Effective permeability Pe ([2]; dopamine constructs) | Capacity factor kIAM ([1]; dopamine constructs) | SMILES | Capacity factor kIAM ([1]; baicalin constructs) | Log Pe ([2]; baicalin constructs) | Effective permeability Pe ([2]; baicalin constructs)
 |  |  | O=C(O)[C@H]1O[C@@H](Oc2cc3oc(-c4ccccc4)cc(=O)c3c(O)c2O)[C@H](O)[C@@H](O)[C@@H]1O [Baicalin, baicalin, reference compound] | 1.24 |  | 
 |  |  | CN1C(=O)C(Cc2ccc(NC(=O)C3OC(Oc4cc5oc(-c6ccccc6)cc(=O)c5c(O)c4O)C(O)C(O)C3O)cc2)NC(=O)C1Cc1ccccc1 (centres unmarked) [Compound 5a, DKP Phe(p-NH—CO-baicalin)-N-MePhe] | 2.42 | −7.7 | 1.33 10^−8 cm/s
 |  |  | CN1C(=O)C(Cc2ccc(NC(=O)C3OC(Oc4cc5oc(-c6ccccc6)cc(=O)c5c(O)c4O)C(O)C(O)C3O)cc2)NC(=O)C1CC1CCCCC1 (centres unmarked) [Compound 5b, DKP Phe(p-NH—CO-baicalin)-N-MeCha] | 6.09 | −6.4 | 3.65 10^−7 cm/s
 |  |  | CN1C(=O)C(Cc2ccc(NC(=O)C3OC(Oc4cc5oc(-c6ccccc6)cc(=O)c5c(O)c4O)C(O)C(O)C3O)cc2)NC(=O)C1Cc1ccc2ccccc2c1 (centres unmarked) [Compound 5c, DKP Phe(p-NH—CO-baicalin)-N-Me2Nal] | 10.66 | −5.4 | 3.70 10^−6 cm/s
 |  |  | CN1C(=O)C(Cc2ccc(NC(=O)C3OC(Oc4cc5oc(-c6ccccc6)cc(=O)c5c(O)c4O)C(O)C(O)C3O)cc2)NC(=O)C1Cc1ccc2ccc3cccc4ccc1c2c34 (centres unmarked) [Compound 5d, DKP Phe(p-NH—CO-baicalin)-N-Me1PyrenylAla] | >100 | −8.7 | 0.19 10^−8 cm/s
 |  |  | CN1C(=O)C(Cc2ccc(NC(=O)C3OC(Oc4cc5oc(-c6ccccc6)cc(=O)c5c(O)c4O)C(O)C(O)C3O)cc2)NC(=O)C1CCc1ccccc1 (centres unmarked) [Compound 5e, DKP Phe(p-NH—CO-baicalin)-N-MeHomoPhe] | 4.15 | −9.3 | 0.05 10^−8 cm/s
 |  |  | CCCCCCC1C(=O)NC(Cc2ccc(NC(=O)C3OC(Oc4cc5oc(-c6ccccc6)cc(=O)c5c(O)c4O)C(O)C(O)C3O)cc2)C(=O)N1C (centres unmarked) [Compound 5f, DKP Phe(p-NH—CO-baicalin)-N-MeOct] | 10.47 | −6.3 | 4.97 10^−7 cm/s
−7.4 | 3.61 10^−8 cm/s | 3.54 | CN1C(=O)C(Cc2ccc(NCC(=O)NCCc3ccc(O)c(O)c3)cc2)NC(=O)C1Cc1ccccc1 (centres unmarked) [Compound 6a, DKP Phe(p-NH—CH2—CO—NH-dopamine)-N-MePhe] |  |  | 
−7.6 | 2.28 10^−8 cm/s | 0.86 | CN1C(=O)C(Cc2ccc(NCC(=O)NCCc3ccc(O)c(O)c3)cc2)NC(=O)C1CC1CCCCC1 (centres unmarked) [Compound 6b, DKP Phe(p-NH—CH2—CO—NH-dopamine)-N-MeCha] |  |  | 
−6.9 | 11.5 10^−8 cm/s | 16.14 | CN1C(=O)C(Cc2ccc(NCC(=O)NCCc3ccc(O)c(O)c3)cc2)NC(=O)C1Cc1ccc2ccccc2c1 (centres unmarked) [Compound 6c, DKP Phe(p-NH—CH2—CO—NH-dopamine)-N-Me2Nal] |  |  | 
−7.7 | 1.90 10^−8 cm/s | >100 | CN1C(=O)C(Cc2ccc(NCC(=O)NCCc3ccc(O)c(O)c3)cc2)NC(=O)C1Cc1ccc2ccc3cccc4ccc1c2c34 (centres unmarked) [Compound 6d, DKP Phe(p-NH—CH2—CO—NH-dopamine)-N-Me(1PyrenylAla)] |  |  | 
−8.1 | 0.76 10^−8 cm/s | 3.15 | CN1C(=O)C(Cc2ccc(NCC(=O)NCCc3ccc(O)c(O)c3)cc2)NC(=O)C1CCc1ccccc1 (centres unmarked) [Compound 6e, DKP Phe(p-NH—CH2—CO—NH-dopamine)-N-MeHomoPhe] |  |  | 
−6.5 | 32.1 10^−8 cm/s | 15.47 | CCCCCCC1C(=O)NC(Cc2ccc(NCC(=O)NCCc3ccc(O)c(O)c3)cc2)C(=O)N1C (centres unmarked) [Compound 6f, DKP Phe(p-NH—CH2—CO—NH-dopamine)-N-MeOct] |  |  | 
 |  | 0.30 | NCCc1ccc(O)c(O)c1 [Dopamine, dopamine, reference compound] |  |  | 
